Results taken from US8741944B2, “Anti-infective agents against intracellular pathogens” (priority 2007, dated 2014).
Where two headings read alike, the source gives them in different places.

Legend:
[1] = system: CAKI-1 (Renal Cancer); assay: NCI DTP tumor cell line screen (SRB), CAKI-1
Experimental: (§1) For a typical screening experiment, cells are inoculated into 96 well microtiter plates in 100 μL at plating densities ranging from 5,000 to 40,000 cells/well depending on the doubling time of individual cell lines. After cell inoculation, the microtiter plates are incubated at 37° C., 5% CO2, 95% air and 100% relative humidity for 24 h prior to addition of experimental drugs.
(§2) After 24 h, two plates of each cell line are fixed in situ with TCA, to represent a measurement of the cell population for each cell line at the time of drug addition (Tz). Experimental drugs are solubilized in dimethyl sulfoxide at 400-fold the desired final maximum test concentration and stored frozen prior to use. At the time of drug addition, an aliquot of frozen concentrate is thawed and diluted to twice the desired final maximum test concentration with complete medium containing 50 μg/ml gentamicin. Additional four, 10-fold or ½ log serial dilutions are made to provide a total of five drug concentrations plus control. Aliquots of 100 μl of these different drug dilutions are added to the appropriate microtiter wells already containing 100 μl of medium, resulting in the required final drug concentrations.
(§3) Following drug addition, the plates are incubated for an additional 48 h at 37° C., 5% CO2, 95% air, and 100% relative humidity. For adherent cells, the assay is terminated by the addition of cold TCA. Cells are fixed in situ by the gentle addition of 50 μl of cold 50% (w/v) TCA (final concentration, 10% TCA) and incubated for 60 minutes at 4° C. The supernatant is discarded, and the plates are washed five times with tap water and air dried. Sulforhodamine B (SRB) solution (1001) at 0.4% (w/v) in 1% acetic acid is added to each well, and plates are incubated for 10 minutes at room temperature. After staining, unbound dye is removed by washing five times with 1% acetic acid and the plates are air dried. Bound stain is subsequently solubilized with 10 mM trizma base, and the absorbance is read on an automated plate reader at a wavelength of 515 nm. For suspension cells, the methodology is the same except that the assay is terminated by fixing settled cells at the bottom of the wells by gently adding 50 μl of 80% TCA (final concentration, 16% TCA). Using the seven absorbance measurements [time zero, (Tz), control growth, (C), and test growth in the presence of drug at the five concentration levels (Ti)], the percentage growth is calculated at each of the drug concentrations levels. Percentage growth inhibition is calculated as: [(Ti−Tz)/(C−Tz)]×100 for concentrations for which Ti>/=Tz [(Ti−Tz)/Tz]×100 for concentrations for which Ti<Tz
(§4) Three dose response parameters are calculated for each experimental agent. […] The drug concentration resulting in total growth inhibition (TGI) is calculated from Ti=Tz. […] Values are calculated for each of these three parameters if the level of activity is reached; however, if the effect is not reached or is exceeded, the value for that parameter is expressed as greater or less than the maximum or minimum concentration tested.

[2] = system: NCI-H23 (Non-Small Cell Lung Cancer)
Experimental: as §1, §2, §3, §4

[3] = system: RPMI-8226 (Leukemia); assay: NCI DTP tumor cell line screen (SRB), RPMI-8226
Experimental: as §1, §2, §3, §4

[4] = system: SK-MEL-5 (Melanoma); assay: NCI DTP tumor cell line screen (SRB), SK-MEL-5
Experimental: as §1, §2, §3, §4

[5] = system: 786-0 (Renal Cancer); assay: NCI DTP tumor cell line screen (SRB), 786-0
Experimental: as §1, §2, §3, §4

[6] = system: HCT-116 (Colon Cancer); assay: NCI DTP tumor cell line screen (SRB), HCT-116
Experimental: as §1, §2, §3, §4

[7] = system: RXF 393 (Renal Cancer); assay: NCI DTP tumor cell line screen (SRB), RXF 393; conditions: RXF 393
Experimental: as §1, §2, §3, §4

[8] = system: SK-OV-3 (Ovarian Cancer); assay: NCI DTP tumor cell line screen (SRB), SK-OV-3
Experimental: as §1, §2, §3, §4

[9] = system: HOP-92 (Non-Small Cell Lung Cancer); assay: NCI DTP tumor cell line screen (SRB), HOP-92
Experimental: as §1, §2, §3, §4

[10] = system: K-562 (Leukemia); assay: NCI DTP tumor cell line screen (SRB), K-562
Experimental: as §1, §2, §3, §4

[11] = system: CCRF-CEM (Leukemia); assay: NCI DTP tumor cell line screen (SRB), CCRF-CEM
Experimental: as §1, §2, §3, §4

[12] = system: UACC-62 (Melanoma); assay: NCI DTP tumor cell line screen (SRB), UACC-62
Experimental: as §1, §2, §3, §4

[13] = system: SW-620 (Colon Cancer); assay: NCI DTP tumor cell line screen (SRB), SW-620
Experimental: as §1, §2, §3, §4

[14] = system: OVCAR-3 (Ovarian Cancer); assay: NCI DTP tumor cell line screen (SRB), OVCAR-3
Experimental: as §1, §2, §3, §4

[15] = system: IGROV1 (Ovarian Cancer); assay: NCI DTP tumor cell line screen (SRB), IGROV1
Experimental: as §1, §2, §3, §4

NCC(=O)Nc1ccc(-n2nc(C(F)(F)F)cc2-c2ccc3c(ccc4ccccc43)c2)cc1 [Compound 70, 2-Amino-N-{4-[5-(2-phenanthrenyl)-3-(trifluoromethyl)-1H-pyrazol-1-yl]-phenyl}-acetamide]
TGI [1]: 2.27E−06
Mean Optical Densities ([1]; Log10 Concentration −4.0): 0.335
Mean Optical Densities ([1]; Log10 Concentration −5.0): 0.147
Percent Growth ([1]; Log10 Concentration −5.0): −75%
Mean Optical Densities ([1]; Log10 Concentration −6.0): 1.126
Percent Growth ([1]; Log10 Concentration −6.0): 42%
Mean Optical Densities ([1]; Log10 Concentration −7.0): 1.802
Percent Growth ([1]; Log10 Concentration −7.0): 95%
Mean Optical Densities ([1]; Log10 Concentration −8.0): 1.692
Percent Growth ([1]; Log10 Concentration −8.0): 87%
TGI [2]: 2.87E−06
Mean Optical Densities ([2]; Log10 Concentration −4.0): 0.156
Mean Optical Densities ([2]; Log10 Concentration −5.0): 0.097
Percent Growth ([2]; Log10 Concentration −5.0): −79%
Mean Optical Densities ([2]; Log10 Concentration −6.0): 1.255
Percent Growth ([2]; Log10 Concentration −6.0): 67%
Mean Optical Densities ([2]; Log10 Concentration −7.0): 1.673
Percent Growth ([2]; Log10 Concentration −7.0): 102%
Mean Optical Densities ([2]; Log10 Concentration −8.0): 1.672
Percent Growth ([2]; Log10 Concentration −8.0): 101%
TGI [3]: 2.84E−06
Mean Optical Densities ([3]; Log10 Concentration −4.0): 0.229
Mean Optical Densities ([3]; Log10 Concentration −5.0): 0.164
Percent Growth ([3]; Log10 Concentration −5.0): −51%
Mean Optical Densities ([3]; Log10 Concentration −6.0): 0.547
Percent Growth ([3]; Log10 Concentration −6.0): 42%
Mean Optical Densities ([3]; Log10 Concentration −7.0): 0.701
Percent Growth ([3]; Log10 Concentration −7.0): 72%
Mean Optical Densities ([3]; Log10 Concentration −8.0): 0.766
Percent Growth ([3]; Log10 Concentration −8.0): 85%
TGI [4]: 3.02E−06
Mean Optical Densities ([4]; Log10 Concentration −4.0): 0.364
Mean Optical Densities ([4]; Log10 Concentration −5.0): 0.136
Percent Growth ([4]; Log10 Concentration −5.0): −75%
Mean Optical Densities ([4]; Log10 Concentration −6.0): 1.659
Percent Growth ([4]; Log10 Concentration −6.0): 69%
Mean Optical Densities ([4]; Log10 Concentration −7.0): 1.958
Percent Growth ([4]; Log10 Concentration −7.0): 88%
Mean Optical Densities ([4]; Log10 Concentration −8.0): 1.995
Percent Growth ([4]; Log10 Concentration −8.0): 91%
TGI [5]: 2.85E−06
Mean Optical Densities ([5]; Log10 Concentration −4.0): 0.299
Mean Optical Densities ([5]; Log10 Concentration −5.0): 0.181
Percent Growth ([5]; Log10 Concentration −5.0): −72%
Mean Optical Densities ([5]; Log10 Concentration −6.0): 1.440
Percent Growth ([5]; Log10 Concentration −6.0): 60%
Mean Optical Densities ([5]; Log10 Concentration −7.0): 1.897
Percent Growth ([5]; Log10 Concentration −7.0): 95%
Mean Optical Densities ([5]; Log10 Concentration −8.0): 2.012
Percent Growth ([5]; Log10 Concentration −8.0): 104%
Mean Optical Densities ([6]; Log10 Concentration −4.0): 0.146
Mean Optical Densities ([6]; Log10 Concentration −5.0): 0.104
Percent Growth ([6]; Log10 Concentration −5.0): −9%
Mean Optical Densities ([6]; Log10 Concentration −6.0): 0.452
Percent Growth ([6]; Log10 Concentration −6.0): 57%
Mean Optical Densities ([6]; Log10 Concentration −7.0): 0.665
Percent Growth ([6]; Log10 Concentration −7.0): 93%
Mean Optical Densities ([6]; Log10 Concentration −8.0): 0.751
Percent Growth ([6]; Log10 Concentration −8.0): 107%
Mean Optical Densities ([7]; Log10 Concentration −4.0): 0.441
Mean Optical Densities ([7]; Log10 Concentration −5.0): 0.177
Percent Growth ([7]; Log10 Concentration −5.0): −56%
Mean Optical Densities ([7]; Log10 Concentration −6.0): 0.628
Percent Growth ([7]; Log10 Concentration −6.0): 56%
Mean Optical Densities ([7]; Log10 Concentration −7.0): 0.700
Mean Optical Densities ([7]; Log10 Concentration −8.0): 0.766
TGI [8]: 2.96E−06
Mean Optical Densities ([8]; Log10 Concentration −4.0): 0.302
Mean Optical Densities ([8]; Log10 Concentration −5.0): 0.083
Percent Growth ([8]; Log10 Concentration −5.0): −79%
Mean Optical Densities ([8]; Log10 Concentration −6.0): 1.262
Percent Growth ([8]; Log10 Concentration −6.0): 71%
Mean Optical Densities ([8]; Log10 Concentration −7.0): 1.597
Percent Growth ([8]; Log10 Concentration −7.0): 98%
Mean Optical Densities ([8]; Log10 Concentration −8.0): 1.514
Percent Growth ([8]; Log10 Concentration −8.0): 91%
TGI [9]: 3.07E−06
Mean Optical Densities ([9]; Log10 Concentration −4.0): 0.267
Mean Optical Densities ([9]; Log10 Concentration −5.0): 0.095
Percent Growth ([9]; Log10 Concentration −5.0): −91%
Mean Optical Densities ([9]; Log10 Concentration −6.0): 1.465
Percent Growth ([9]; Log10 Concentration −6.0): 87%
Mean Optical Densities ([9]; Log10 Concentration −7.0): 1.474
Percent Growth ([9]; Log10 Concentration −7.0): 89%
Mean Optical Densities ([9]; Log10 Concentration −8.0): 1.509
Percent Growth ([9]; Log10 Concentration −8.0): 96%
TGI [10]: 3.34E−06
Mean Optical Densities ([10]; Log10 Concentration −4.0): 0.247
Mean Optical Densities ([10]; Log10 Concentration −5.0): 0.209
Percent Growth ([10]; Log10 Concentration −5.0): −30%
Mean Optical Densities ([10]; Log10 Concentration −6.0): 0.681
Percent Growth ([10]; Log10 Concentration −6.0): 33%
Mean Optical Densities ([10]; Log10 Concentration −7.0): 1.022
Percent Growth ([10]; Log10 Concentration −7.0): 62%
Mean Optical Densities ([10]; Log10 Concentration −8.0): 1.435
Percent Growth ([10]; Log10 Concentration −8.0): 97%
TGI [11]: 2.49E−06
Mean Optical Densities ([11]; Log10 Concentration −4.0): 0.194
Mean Optical Densities ([11]; Log10 Concentration −5.0): 0.168
Percent Growth ([11]; Log10 Concentration −5.0): −43%
Mean Optical Densities ([11]; Log10 Concentration −6.0): 0.523
Percent Growth ([11]; Log10 Concentration −6.0): 28%
Mean Optical Densities ([11]; Log10 Concentration −7.0): 0.946
Percent Growth ([11]; Log10 Concentration −7.0): 81%
Percent Growth ([11]; Log10 Concentration −8.0): 74%
TGI [12]: 3.15E−06
Mean Optical Densities ([12]; Log10 Concentration −4.0): 0.364
Mean Optical Densities ([12]; Log10 Concentration −5.0): 0.137
Percent Growth ([12]; Log10 Concentration −5.0): −80%
Mean Optical Densities ([12]; Log10 Concentration −6.0): 1.407
Percent Growth ([12]; Log10 Concentration −6.0): 79%
Mean Optical Densities ([12]; Log10 Concentration −7.0): 1.546
Percent Growth ([12]; Log10 Concentration −7.0): 94%
Mean Optical Densities ([12]; Log10 Concentration −8.0): 1.649
Percent Growth ([12]; Log10 Concentration −8.0): 105%
TGI [13]: 4.23E−06
Mean Optical Densities ([13]; Log10 Concentration −4.0): 0.136
Mean Optical Densities ([13]; Log10 Concentration −5.0): 0.127
Percent Growth ([13]; Log10 Concentration −5.0): −32%
Mean Optical Densities ([13]; Log10 Concentration −6.0): 0.736
Percent Growth ([13]; Log10 Concentration −6.0): 54%
Mean Optical Densities ([13]; Log10 Concentration −7.0): 1.198
Percent Growth ([13]; Log10 Concentration −7.0): 100%
Mean Optical Densities ([13]; Log10 Concentration −8.0): 1.197
Percent Growth ([13]; Log10 Concentration −8.0): 100%
TGI [14]: 3.32E−06
Mean Optical Densities ([14]; Log10 Concentration −4.0): 0.301
Mean Optical Densities ([14]; Log10 Concentration −5.0): 0.140
Percent Growth ([14]; Log10 Concentration −5.0): −70%
Mean Optical Densities ([14]; Log10 Concentration −6.0): 0.816
Percent Growth ([14]; Log10 Concentration −6.0): 76%
Mean Optical Densities ([14]; Log10 Concentration −7.0): 0.849
Percent Growth ([14]; Log10 Concentration −7.0): 83%
Mean Optical Densities ([14]; Log10 Concentration −8.0): 0.879
Percent Growth ([14]; Log10 Concentration −8.0): 89%
TGI [15]: 3.97E−06
Mean Optical Densities ([15]; Log10 Concentration −4.0): 0.302
Mean Optical Densities ([15]; Log10 Concentration −5.0): 0.235
Percent Growth ([15]; Log10 Concentration −5.0): −49%
Mean Optical Densities ([15]; Log10 Concentration −6.0): 0.902
Percent Growth ([15]; Log10 Concentration −6.0): 74%
Mean Optical Densities ([15]; Log10 Concentration −7.0): 1.103
Percent Growth ([15]; Log10 Concentration −7.0): 107%
Mean Optical Densities ([15]; Log10 Concentration −8.0): 1.044
Percent Growth ([15]; Log10 Concentration −8.0): 97%
